From patent US9974778B2, “Substituted pyridinones as MGAT2 inhibitors” (BRISTOL-MYERS SQUIBB COMPANY, priority 2014, dated 2018) come the findings set out here.

The target of the assay is T1, Human MGAT-2 (Homo sapiens, UniProt Q3SYC2).
T1 construct: made in house; host or cells: Sf9 cells (membrane preparation)
As to the kind of experiment: MGAT LCMS Assay. Format: biochemical. The following applies: human MGAT2 membranes expressed in Sf9 cells; 100 μM 2-oleoylglycerol, 15 μM oleoyl-coenzyme A; read-out: h-MGAT LCMS IC50. The method, then: Assay plates were run through a fully automated robotics system and shaken for 5 seconds every minute for a total 10 minutes. The reactions were then quenched with 120 μL of ice cold methanol containing 1 μg/mL 1,2-distearoyl-rac-glycerol as the internal standard. Plates were shaken for 2 minutes and spun down to remove protein precipitation. After the spin, samples were transferred to LC/MS compatible PCR plates. For LC/MS analysis, a ThermoFisher Surveyor pump, utilizing a Waters […]® C8, 50×2.1 mm column, was used for the chromatography of enzyme products. The buffer system consists of 0.1% formic acid in water with a mobile phase consisting 0.1% formic acid in methanol. […] The first 0.5 minutes of each injection was diverted to waste to eliminate the presence of Phosphate buffer in the enzymatic reaction. The column was run at 0.6 mL/min and a temperature of 65° C. Mass spectrometry analysis of the samples was performed on a ThermoFisher Quantum Triple quad utilizing APCI (+) as the mode of ionization. […] The ratio of Diolein to internal standard (Peak Area Ratio) is utilized to calculate IC50 values.

T1 sequence (Q3SYC2 whole entry): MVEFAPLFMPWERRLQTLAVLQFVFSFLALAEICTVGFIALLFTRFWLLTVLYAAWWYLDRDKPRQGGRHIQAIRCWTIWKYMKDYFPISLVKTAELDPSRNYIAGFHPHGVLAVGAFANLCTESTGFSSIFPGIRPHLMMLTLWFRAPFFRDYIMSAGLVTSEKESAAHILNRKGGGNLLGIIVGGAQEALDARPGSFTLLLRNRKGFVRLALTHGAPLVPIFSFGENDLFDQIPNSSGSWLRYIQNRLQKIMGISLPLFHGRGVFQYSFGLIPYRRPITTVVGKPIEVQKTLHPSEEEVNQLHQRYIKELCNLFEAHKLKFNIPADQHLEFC

A word on the IC50: it is the midpoint of a concentration-inhibition curve. In the case of “5-Chloro-6-cyclohexyl-N-(4-methoxyphenyl)-2-oxo-4-(p- tolyl)-1,2-dihydropyridine-3-carboxamide [Example 35]”, the IC50 came out at 288 nM. The same measure for `COc1ccc(NC(=O)c2c(-c3ccc(C)cc3)cc(-c3ccc(OCCCC(F)(F)F)cc3)[nH]c2=O)cc1` [Example 2, N-(4-Methoxyphenyl)-2-oxo-4-(p-tolyl)-6-(4-(4,4,4-trifluorobutoxy)phenyl)-1,2-dihydropyridine-3-carboxamide]: 30 nM. The result for `COc1ccc(NC(=O)c2c(-c3ccc(C)cc3)c(F)c(-c3ccc(OCCCC(F)(F)F)cc3)[nH]c2=O)cc1` [Example 3, 5-Fluoro-N-(4-methoxyphenyl)-2-oxo-4-(p-tolyl)-6-(4-(4,4,4-trifluorobutoxy)phenyl)-1,2-dihydropyridine-3-carboxamide] reads 19 nM; that for `COc1ccc(NC(=O)c2c(-c3ccc(C)cc3)cc(-c3nc(-c4ccccc4)oc3C)[nH]c2=O)cc1` [Example 4, N-(4-Methoxyphenyl)-6-(5-methyl-2-phenyloxazol-4-yl)-2-oxo-4-(p-tolyl)-1,2-dihydropyridine-3-carboxamide], 5 nM. Take `CCOc1ccc(NC(=O)c2c(-c3ccc(C)cc3)cc(-c3ccc(OCCCC(F)(F)F)cc3)[nH]c2=O)cc1` [Example 5, N-(4-Ethoxyphenyl)-2-oxo-4-(p-tolyl)-6-(4-(4,4,4-trifluorobutoxy)phenyl)-1,2-dihydropyridine-3-carboxamide]: the IC50 turned out to be 21 nM. The result for `Cc1ccc(-c2c(Br)c(-c3ccc(OCCCC(F)(F)F)cc3)[nH]c(=O)c2-c2nnn[nH]2)cc1` [Example 6, 5-Bromo-3-(1H-tetrazol-5-yl)-4-(p-tolyl)-6-(4-(4,4,4-trifluorobutoxy)phenyl)pyridin-2(1H)-one] reads 79 nM; that for `Cc1ccc(-c2c(C)c(-c3ccc(OCCCC(F)(F)F)cc3)[nH]c(=O)c2-c2nnn[nH]2)cc1` [Example 7, 5-Methyl-3-(1H-tetrazol-5-yl)-4-(p-tolyl)-6-(4-(4,4,4-trifluorobutoxy)phenyl)pyridin-2(1H)-one], 9 nM; that for `CCOc1ccc(NC(=O)c2c(-c3cnc(N(C)C)s3)cc(C3CCCCC3)[nH]c2=O)cc1` [Example 8, 6-Cyclohexyl-4-(2-(dimethylamino)thiazol-5-yl)-N-(4-ethoxyphenyl)-2-oxo-1,2-dihydropyridine-3-carboxamide], 50 nM. The same measure for `CCOc1ccc(NC(=O)c2c(-c3cnc(N(C)C)s3)cc(C3(O)CCCCC3)[nH]c2=O)cc1` [Example 9, 4-(2-(Dimethylamino)thiazol-5-yl)-N-(4-ethoxyphenyl)-6-(1-hydroxycyclohexyl)-2-oxo-1,2-dihydropyridine-3-carboxamide]: 293 nM; for `CCOc1ccc(NC(=O)c2c(-c3cnc(N(C)C)s3)cc(C3(F)CCCCC3)[nH]c2=O)cc1` [Example 10, 4-(2-(Dimethylamino)thiazol-5-yl)-N-(4-ethoxyphenyl)-6-(1-fluorocyclohexyl)-2-oxo-1,2-dihydropyridine-3-carboxamide]: 17 nM.

Regarding `CC(C)(C)c1ccc(-c2cc(-c3ccc(OCCCC(F)(F)F)cc3)[nH]c(=O)c2C(=O)O)cc1` [Example 11, 4-(4-(tert-Butyl)phenyl)-2-oxo-6-(4-(4,4,4-trifluorobutoxy)phenyl)-1,2-dihydropyridine-3-carboxylic acid], the IC50 amounted to 461 nM. The same measure for `CC(C)(C)c1ccc(-c2cc(-c3ccc(OCCCC(F)(F)F)cc3)[nH]c(=O)c2C(=O)NS(=O)(=O)C2CC2)cc1` [Example 12, 4-(4-(tert-Butyl)phenyl)-N-(cyclopropylsulfonyl)-2-oxo-6-(4-(4,4,4-trifluorobutoxy)phenyl)-1,2-dihydropyridine-3-carboxamide]: 56 nM. The result for `CCCCCc1ccc(-c2cc(-c3ccc(C)cc3)c(NC(=O)c3ccccc3)c(=O)[nH]2)cc1` [Example 14, N-(2-Oxo-6-(4-pentylphenyl)-4-(p-tolyl)-1,2-dihydropyridin-3-yl)benzamide] reads 100 nM; that for `CCOc1ccc(NC(=O)c2c(-c3ccc(C)cc3)c(I)c(C3CCCCC3)[nH]c2=O)cc1` [Example 15, 6-Cyclohexyl-N-(4-ethoxyphenyl)-5-iodo-2-oxo-4-(p-tolyl)-1,2-dihydropyridine-3-carboxamide], 5 nM.

On to `Cc1ccc(-c2c(F)c(-c3ccc(OCCCC(F)(F)F)cc3)[nH]c(=O)c2-c2nnn[nH]2)cc1` [Example 17, 5-Fluoro-3-(1H-tetrazol-5-yl)-4-(p-tolyl)-6-(4-(4,4,4-trifluorobutoxy)phenyl)pyridin-2(1H)-one], for which the IC50 is 298 nM. The result for `Cc1ccc(-c2c(Cl)c(-c3ccc(OCCCC(F)(F)F)cc3)[nH]c(=O)c2-c2nnn[nH]2)cc1` [Example 19, 5-Chloro-3-(1H-tetrazol-5-yl)-4-(p-tolyl)-6-(4-(4,4,4-trifluorobutoxy)phenyl)pyridin-2(1H)-one] reads 100 nM; that for `CCc1ccc(-c2cc(-c3ccc(OCCCC(F)(F)F)cc3F)[nH]c(=O)c2-c2nn[nH]n2)s1` [Example 20, 4-(5-Ethylthiophen-2-yl)-6-(2-fluoro-4-(4,4,4-trifluorobutoxy)phenyl)-3-(2H-tetrazol-5-yl)pyridin-2(1H)-one], 5 nM; that for `CCc1ccc(-c2cc(-c3ccc(OCCCC(F)(F)F)cc3)[nH]c(=O)c2C(=O)NS(C)(=O)=O)s1` [Example 21, 4-(5-Ethylthiophen-2-yl)-N-(methylsulfonyl)-2-oxo-6-(4-(4,4,4-trifluorobutoxy)phenyl)-1,2-dihydropyridine-3-carboxamide], 21 nM. Regarding `CCc1ccc(-c2cc(-c3ccc(OCCCC(F)(F)F)cc3Cl)[nH]c(=O)c2-n2nn[nH]c2=O)s1` [Example 22, 6-(2-Chloro-4-(4,4,4-trifluorobutoxy)phenyl)-4-(5-ethylthiophen-2-yl)-3-(5-oxo-4,5-dihydro-1H-tetrazol-1-yl)pyridin-2(1H)-one], the IC50 stood at 252 nM. The same measure for `CCCCCc1ccc(-c2cc(-c3ccc(C)cc3)c(C(=O)Nc3cccnc3)c(=O)[nH]2)cc1` [Example 23, 2-Oxo-6-(4-pentylphenyl)-N-(pyridin-3-yl)-4-(p-tolyl)-1,2-dihydropyridine-3-carboxamide]: 24 nM; for `CCOc1ccc(NC(=O)c2c(-c3ccc(C)cc3)c(C)c(-c3ccc(OCCCC(F)(F)F)cc3)[nH]c2=O)cc1` [Example 24, N-(4-Ethoxyphenyl)-5-methyl-2-oxo-4-(p-tolyl)-6-(4-(4,4,4-trifluorobutoxy)phenyl)-1,2-dihydropyridine-3-carboxamide]: 39 nM; for `CCOc1ccc(NC(=O)c2c(-c3ccc(C)cc3)c(C)c(C3CCCCC3)[nH]c2=O)cc1` [Example 25, 6-Cyclohexyl-N-(4-ethoxyphenyl)-5-methyl-2-oxo-4-(p-tolyl)-1,2-dihydropyridine-3-carboxamide]: 72 nM. In the case of `C=Cc1c(-c2ccc(CCCCC)cc2)[nH]c(=O)c(C(=O)Nc2ccc(OCC)cc2)c1-c1ccc(C)cc1` [Example 26, N-(4-Ethoxyphenyl)-2-oxo-6-(4-pentylphenyl)-4-(p-tolyl)-5-vinyl-1,2-dihydropyridine-3-carboxamide], the IC50 is 82 nM.

On to `CCCCCc1ccc(-c2cc(-c3ccc(C)cc3)c(C(=O)Nc3ccc(OCC)cc3)c(=O)[nH]2)cc1` [Example 27, N-(4-Ethoxyphenyl)-2-oxo-6-(4-pentylphenyl)-4-(p-tolyl)-1,2-dihydropyridine-3-carboxamide], for which the IC50 worked out at 86 nM.
